Data reported in patent US20150051192A1, “BLOCKING OF CUE-INDUCED DRUG REINSTATEMENT” (ALBANY MEDICAL COLLEGE, priority 2012, published 2015).
“Also recorded” adds a separate entry of the source. Read-outs that look alike come from different tables or passages of the source.

Key:
study animals [1] = settings: cited from earlier work
[2] = in vivo, cited from earlier work
study animals [3] = settings: cited from earlier work; remark: listed apart in the source
rats [4] = settings: cited from earlier work
[5] = system: female Sprague-Dawley rats; experiment: Musical cue-induced reinstatement of cocaine seeking (Experiment 3); assay type: in vivo, rat; settings: 18-MC 40 mg/kg i.p. 20 minutes prior to reinstatement test session, vs saline
Excerpt: Naïve female Sprague-Dawley rats (Taconic Germantown, N.Y.), weighing approximately 250 g at the start of the experiments, were housed individually in a temperature and humidity controlled colony room under a standard 12:12 light/dark cycle. Food and water were provided ad libitum. Protocols were designed and implemented in accordance with the “Guide for the Care and Use of Laboratory Animals” (1996) and were approved by the Institutional Animal Care and Use Committee of Albany Medical College. Rats were given one week of acclimation prior to experimental procedures.
Cocaine hydrochloride (˜0.4 mg/kg/infusion, Sigma-Aldrich, St. Louis, Mo.) was dissolved in 0.9% sodium chloride with a 2 mg/ml drug to saline ratio, and then brought to a neutral physiological pH before use in intravenous (i.v.) self-administration sessions. 18-MC (40 mg/kg, Obiter Research LLC. Champaign, Ill.) and saline were both administered intraperitoneally (i.p.). Animals were anesthetized with sodium pentobarbital (50 mg/kg, i.p.) for both intrajugular and microdialysis cannulation surgeries. Sodium methohexital (10 mg/kg) was used to verify catheter patency. All other reagents used in conjunction with microdialysis experiments were obtained from local suppliers and were of analytical grade.
Miles Davis' “Four” (Prestige Blue Haze, 1954) was the musical track used as a contextual cue in these experiments. The Miles Davis selection was chosen because it had been used successfully in past conditioning paradigms in our laboratory (Polston et al, 2011b). This musical selection was originally chosen because it has a repetitive beat and melody, helping to make it easily recognizable and identifiable. During drug training, self-administration, and applicable test sessions, “Four” was played on a continuous loop, at a volume staying between 65 and 75 decibels. This decibel range was chosen because it had been used successfully in past investigations involving rats and music (Feduccia et al, 2008; Otsuka et al, 2009; Polston et al, 2011b).
Experiments were conducted in rat operant conditioning chambers (ENV-009, Med Associates, St. Albans, Vt.) located within sound attenuated boxes outfitted with acoustical foam. The operant boxes were continuously ventilated with a house fan, and equipped with two retractable levers spaced approximately 20 cm apart on the front wall, with a house light mounted on the back wall of the test chamber. […] By operationally defining the floor (30.5 cm×31.8 cm) of the test chamber, and dividing it into three spatial zones, the program automatically generated detailed readings of the time spent in each zone in seconds and the distance that the animal traveled in meters. […] Videos were also periodically recorded and analyzed to ensure that Anymaze was functioning correctly. […]

rats [6] = settings: compared to saline treated rats; cited from earlier work

In the case of `COCC[C@H]1CC2CN3CCc4c([nH]c5ccccc45)[C@](C(=O)OC)(C2)[C@H]13` [18-MC, 18-Methoxycoronaridine], the “sensitized dopamine responses in the nucleus accumbens” value (study animals [1]; local administration into both the medial habenula and the interpeduncular nucleus) is given as “produced similar results”, the “sensitized dopamine responses to both morphine and cocaine in the nucleus accumbens” value (study animals [1]; systemic 18-MC 40 mg/kg pretreatment 19 hours beforehand, chronic dosing models) is given as “abolished” and the “acquisition of a cocaine conditioned place preference” value [2] is given as “able to block the acquisition”. The “acquisition of a cocaine conditioned place preference” value ([2]; listed as 18MC) was “block acquisition”, the “effect on drug self-administration” value (study animals [3]; 10 μg administered into the interpeduncular nucleus) was “effective” and the “effect on drug self-administration” value (study animals [3]; 10 μg administered into the ventral tegmental area) was “no effect”. The “morphine, methamphetamine, and nicotine self-administration” value (study animals [3]; locally administered into the medial habenula) was “decreased”, the “nicotine, cocaine, morphine, methamphetamine, and ethanol self-administration” value (rats [4]) was “reduce” and the “time spent in the inactive or back zones, reinstatement test session” value ([5]; inactive p=0.488, back p=0.082) was “no effect of Treatment”. For the same compound, the “active lever responses on the reinstatement test day” value ([5]; musical cue, p<0.001) was “significantly fewer active lever responses; also recorded: significantly attenuated responses”, the “time spent in the active zone, reinstatement test session” value ([5]; p<0.01) was “significant decrease; also recorded: significantly decreased” and the “locomotor activity on the reinstatement test day” value ([5]; p=0.143) was “no significant differences between groups; also recorded: produced no changes in locomotor activity”. The locomotor effects alone (rats [6]) was “produces no locomotor effects alone”.
